Results published in PMC12724200 (mSphere, 2025).

Test system: M. bovis BCG
Assay type: cell-based, Mycobacterium bovis BCG

| Compound | Frequency of spontaneously generated drug-resistant colonies |
| --- | --- |
| CC[C@@H](CO)NCCN[C@@H](CC)CO [EB, ethambutol] | 4.5 × 10^−6 |
| NNC(=O)c1ccncc1 [INH, isoniazid] | 2.0 × 10^−6 |
| NC[C@H]1O[C@H](O[C@H]2[C@H](O)[C@@H](O[C@H]3O[C@H](CO)[C@@H](O)[C@H](N)[C@H]3O)[C@H](N)C[C@@H]2N)[C@H](O)[C@@H](O)[C@@H]1O [KM, kanamycin] | 6.3 × 10^−6 |
| CO[C@H]1/C=C/O[C@@]2(C)Oc3c(C)c(O)c4c(O)c(c(/C=N/N5CCN(C)CC5)c(O)c4c3C2=O)NC(=O)/C(C)=C\C=C\[C@H](C)[C@H](O)[C@@H](C)[C@@H](O)[C@@H](C)[C@H](OC(C)=O)[C@@H]1C [RFP, rifampicin] | 5.2 × 10^−9 |
| [H]/N=C(/N)N[C@H]1[C@H](O)[C@@H](O)[C@H](O[C@@H]2O[C@@H](C)[C@](O)(C=O)[C@H]2O[C@@H]2O[C@@H](CO)[C@H](O)[C@@H](O)[C@@H]2NC)[C@@H](N/C(N)=N\[H])[C@@H]1O [SM, streptomycin] | 3.1 × 10^−7 |
